pEC50: −log10 of the molar value.

The target of this experiment is human somatostatin receptor subtype 5 (Homo sapiens, UniProt P35346). The experiment is described as follows: cAMP assay for SST5R (inhibition of cAMP via human SST5 receptor).
Sequence of human somatostatin receptor subtype 5 (P35346 whole entry): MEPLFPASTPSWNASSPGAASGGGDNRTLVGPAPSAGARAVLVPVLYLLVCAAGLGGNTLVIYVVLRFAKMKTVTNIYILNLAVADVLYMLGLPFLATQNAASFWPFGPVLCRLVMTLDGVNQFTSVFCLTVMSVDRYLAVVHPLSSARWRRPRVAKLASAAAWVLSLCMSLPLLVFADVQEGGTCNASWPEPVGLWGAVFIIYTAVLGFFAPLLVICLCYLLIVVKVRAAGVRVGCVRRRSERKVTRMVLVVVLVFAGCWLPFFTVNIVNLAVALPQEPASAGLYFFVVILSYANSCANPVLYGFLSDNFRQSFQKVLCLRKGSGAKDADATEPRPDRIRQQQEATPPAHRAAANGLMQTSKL
Procedure: cAMP Assay Protocol for SST5R:
The cells are cultured at 37° C., 5% CO2 and 95% humidity. […] The cells are incubated for 20 minutes at 37° C. […] The cells are treated with 50 μL of lysis buffer (HRTF cAMP kit, Cisbio) for 30 minutes and then the lysate is diluted to 250 μL with assay buffer. The lysate is transferred to 384-well plates and cAMP detection and visualization antibodies are added and incubated for 1-24 hours at room temperature. The time-resolved fluorescent signal is read with a Tecan M1000Pro multiplate reader. The intracellular cAMP concentrations are calculated by regression to a standard curve and are plotted vs. the concentration of the compounds of the invention and the EC50 of the compounds are calculated using standard methods. All data manipulations are in GraphPad Prism v6 or v7.
Turning to `CC1(N)CCN(c2c(-c3ccnc(N)c3)cncc2-c2nc3cccc(F)c3[nH]2)C1` (stereo not shown) [Compound 2-15, 4-(3-amino-3-methylpyrrolidin-1-yl)-5-(4-fluoro-1H-1,3-benzodiazol-2-yl)-[3,4′-bipyridin]-2′-amine], the negative logarithm of the EC50 (pEC50) was 7.00 to 8.00.
To `N#Cc1cccc(-c2cncc(-c3nc4c(CO)cccc4[nH]3)c2N2CC[C@H](N)C2)c1` [Compound 2-91, 3-{4-[(3S)-3-aminopyrrolidin-1-yl]-5-[7-(hydroxymethyl)-1H-1,3-benzodiazol-2-yl]pyridin-3-yl}benzonitrile] belongs 6.00 to 7.00.
To `CCc1cccc2[nH]c(-c3cncc(-c4cccc(C#N)c4)c3N3CC[C@H](N)C3)nc12` [Compound 2-100, 3-{4-[(3S)-3-aminopyrrolidin-1-yl]-5-(4-ethyl-1H-1,3-benzodiazol-2-yl)pyridin-3-yl}benzonitrile] belongs > 8.00; to `Cn1c(-c2cncc(-c3cccc(C#N)c3)c2N2CC[C@H](N)C2)nc2c(Cl)cccc21` [Compound 2-75, 3-{4-[(3S)-3-aminopyrrolidin-1-yl]-5-(4-chloro-1-methyl-1H-1,3-benzodiazol-2-yl)pyridin-3-yl}benzonitrile], > 8.00.
To `CCCn1c(-c2cncc(-c3cc(F)cc(C#N)c3)c2N2CC[C@H](N)C2)nc2ccccc21` [Compound 2-111, 3-{4-[(3S)-3-aminopyrrolidin-1-yl]-5-(1-propyl-1H-1,3-benzodiazol-2-yl)pyridin-3-yl}-5-fluorobenzonitrile] belongs 7.00 to 8.00.
Compound `CC1(N)CCN(c2c(-c3cccc(-n4cccn4)c3)cncc2-c2nc3cccc(F)c3[nH]2)C1` (stereo not shown) [Compound 2-16, 1-[3-(4-fluoro-1H-1,3-benzodiazol-2-yl)-5-[3-(1H-pyrazol-1-yl)phenyl]pyridin-4-yl]-3-methylpyrrolidin-3-amine] gave a pEC50 of 7.00 to 8.00.
To `COc1cc(F)cc(-c2cncc(-c3nc4cc(F)cc(F)c4[nH]3)c2N2CC(CN)C2)c1` [Compound 1-58, 1-{1-[3-(4,6-difluoro-1H-1,3-benzodiazol-2-yl)-5-(3-fluoro-5-methoxyphenyl)pyridin-4-yl]azetidin-3-yl}methanamine] belongs > 8.00; to `N[C@H]1CCN(c2c(-c3ccc4c(c3)OCC4)cncc2-c2nc3cccc(F)c3[nH]2)C1` [Compound 2-59, (3S)-1-[3-(2,3-dihydro-1-benzofuran-6-yl)-5-(4-fluoro-1H-1,3-benzodiazol-2-yl)pyridin-4-yl]pyrrolidin-3-amine], 7.00 to 8.00.
To `NCC1CN(c2c(-c3cccc(Cl)c3)cncc2-c2nc3c(F)cc(F)cc3[nH]2)C1` [Compound 1-53, 1-{1-[3-(3-chlorophenyl)-5-(4,6-difluoro-1H-1,3-benzodiazol-2-yl)pyridin-4-yl]azetidin-3-yl}methanamine] belongs > 8.00.
Turning to `NCC1(F)CN(c2c(-c3cc(F)cc(Cl)c3)cncc2-c2nc3cc(F)cc(F)c3[nH]2)C1` [Compound 1-62, 1-{1-[3-(3-chloro-5-fluorophenyl)-5-(4,6-difluoro-1H-1,3-benzodiazol-2-yl)pyridin-4-yl]-3-fluoroazetidin-3-yl}methanamine], the negative logarithm of the EC50 (pEC50) is > 8.00.
To `Cc1cc(F)cc(-c2cncc(-c3nc4c(F)cccc4n3C)c2N2CC(CN)C2)c1` [Compound 1-24, 1-{1-[3-(4-fluoro-1-methyl-1H-1,3-benzodiazol-2-yl)-5-(3-fluoro-5-methylphenyl)pyridin-4-yl]azetidin-3-yl}methanamine] belongs 7.00 to 8.00; to `C#Cc1cccc2[nH]c(-c3cncc(-c4cccc(C#N)c4)c3N3CC[C@H](N)C3)nc12` [Compound 2-84, 3-{4-[(3S)-3-Aminopyrrolidin-1-yl]-5-(4-ethynyl-1H-1,3-benzodiazol-2-yl)pyridin-3-yl}benzonitrile], > 8.00; to `COCCn1c(-c2cncc(-c3cc(F)cc(C#N)c3)c2N2CC[C@H](N)C2)nc2ccccc21` [Compound 2-112, 3-{4-[(3S)-3-aminopyrrolidin-1-yl]-5-[1-(2-methoxyethyl)-1H-1,3-benzodiazol-2-yl]pyridin-3-yl}-5-fluorobenzonitrile], 6.00 to 7.00.

These data come from patent US11608335B2, “Somatostatin modulators and uses thereof” (CRINETICS PHARMACEUTICALS, INC., priority 2018, dated 2023).
